Results from ChEMBL document CHEMBL3217454, “Structureactivity relationship studies using peptide arrays: the example of HIV-1 Revintegrase interaction” (Medchemcomm, 2013).
Square brackets hold non-standard residues; d marks the D form. Peptide text beside a SMILES is read from it. NMeF = CN[C@@H](Cc1ccccc1)C(=O)O; NMeT = CN[C@H](C(=O)O)[C@@H](C)O; NMeV = CN[C@H](C(=O)O)C(C)C; NMeS = CN[C@@H](CO)C(=O)O; Sar = CNCC(=O)O

Experiments:
[1] = biological target: Human immunodeficiency virus type 1 integrase (Human immunodeficiency virus 1) (UniProt Q7ZJM1); assay: Binding affinity to HIV-1 integrase measured after overnight incubation by chemiluminescence analysis relative to IN 118-128; set-up: concentration or dose not given beside the values
[2] = tested on: Human immunodeficiency virus 1; assay: Binding affinity to HLT-tagged HIV-1 Rev measured after overnight incubation by chemiluminescence analysis relative to IN 118-128; set-up: concentration or dose not given beside the values

Human immunodeficiency virus type 1 integrase (Human immunodeficiency virus 1), sequence (Q7ZJM1 as listed by the source): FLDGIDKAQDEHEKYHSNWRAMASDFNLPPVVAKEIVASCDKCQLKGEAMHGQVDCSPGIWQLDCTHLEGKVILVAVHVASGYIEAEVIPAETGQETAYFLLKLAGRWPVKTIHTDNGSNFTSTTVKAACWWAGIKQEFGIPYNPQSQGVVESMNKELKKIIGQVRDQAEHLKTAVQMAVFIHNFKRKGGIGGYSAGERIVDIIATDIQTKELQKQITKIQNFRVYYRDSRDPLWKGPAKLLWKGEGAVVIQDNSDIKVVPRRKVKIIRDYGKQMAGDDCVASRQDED

Row | Structure (SMILES) | Activity [1] | Activity [2]
1 | CC(C)[C@H](NC(=O)[C@@H](NC(=O)[C@@H](NC(=O)[C@H](CO)NC(=O)[C@H](NC(=O)[C@H](Cc1ccccc1)NC(=O)[C@H](CC(N)=O)NC(=O)[C@H](CO)NC(=O)CN)[C@@H](C)O)[C@@H](C)O)[C@@H](C)O)C(=O)N[C@@H](CCCCN)C(=O)N[C@@H](C)C(=O)O | 58% | 52%
2 | CC(C)[C@H](NC(=O)[C@@H](NC(=O)[C@@H](NC(=O)[C@@H](N)CO)[C@@H](C)O)[C@@H](C)O)C(=O)N[C@@H](CCCCN)C(=O)N[C@@H](C)C(=O)O (H-STTVKA-OH) | 144% | 187%
3 | CC(C)[C@H](NC(=O)[C@@H](NC(=O)[C@@H](NC(=O)[C@H](CO)NC(=O)[C@@H](NC(=O)[C@H](Cc1ccccc1)N(C)C(=O)[C@H](CC(N)=O)NC(=O)[C@H](CO)NC(=O)CN)[C@@H](C)O)[C@@H](C)O)[C@@H](C)O)C(=O)N[C@@H](CCCCN)C(=O)N[C@@H](C)C(=O)O (H-GSN[NMeF]TSTTVKA-OH) | 195% | 177%
4 | CC(C)[C@H](NC(=O)[C@@H](NC(=O)[C@@H](NC(=O)[C@H](CO)NC(=O)[C@@H](NC(=O)[C@H](Cc1ccccc1)NC(=O)[C@@H](N)CC(N)=O)[C@@H](C)O)[C@@H](C)O)[C@@H](C)O)C(=O)N[C@@H](CCCCN)C(=O)N[C@@H](C)C(=O)O (H-NFTSTTVKA-OH) | 119% | 152%
5 | CC(C)[C@H](NC(=O)[C@@H](NC(=O)[C@@H](NC(=O)[C@H](CO)NC(=O)[C@@H](NC(=O)[C@H](Cc1ccccc1)NC(=O)[C@H](CC(N)=O)NC(=O)[C@H](CO)NC(=O)[C@H](C)N)[C@@H](C)O)[C@@H](C)O)[C@@H](C)O)C(=O)N[C@@H](CCCCN)C(=O)N[C@@H](C)C(=O)O (H-ASNFTSTTVKA-OH) | 116% | 77%
6 | CC(C)[C@H](NC(=O)[C@@H](NC(=O)[C@@H](NC(=O)[C@H](CO)NC(=O)[C@@H](NC(=O)[C@H](C)NC(=O)[C@H](CC(N)=O)NC(=O)[C@H](CO)NC(=O)CN)[C@@H](C)O)[C@@H](C)O)[C@@H](C)O)C(=O)N[C@@H](CCCCN)C(=O)N[C@@H](C)C(=O)O (H-GSNATSTTVKA-OH) | 133% | 31%
7 | CC(C)[C@H](NC(=O)[C@@H](NC(=O)[C@H](C)NC(=O)[C@H](CO)NC(=O)[C@@H](NC(=O)[C@H](Cc1ccccc1)NC(=O)[C@H](CC(N)=O)NC(=O)[C@H](CO)NC(=O)CN)[C@@H](C)O)[C@@H](C)O)C(=O)N[C@@H](CCCCN)C(=O)N[C@@H](C)C(=O)O (H-GSNFTSATVKA-OH) | 231% | 107%
8 | C[C@@H](O)[C@H](NC(=O)[C@H](CO)NC(=O)[C@@H](NC(=O)[C@H](Cc1ccccc1)NC(=O)[C@H](CC(N)=O)NC(=O)[C@H](CO)NC(=O)CN)[C@@H](C)O)C(=O)O (H-GSNFTST-OH) | 34% | 0%
9 | CC(C)[C@H](NC(=O)[C@@H](NC(=O)[C@H](NC(=O)[C@H](CO)NC(=O)[C@@H](NC(=O)[C@H](Cc1ccccc1)NC(=O)[C@H](CC(N)=O)NC(=O)[C@H](CO)NC(=O)CN)[C@@H](C)O)[C@@H](C)O)[C@@H](C)O)C(=O)N[C@@H](CCCCN)C(=O)N[C@@H](C)C(=O)O | 150% | 176%
10 | CC(C)[C@H](NC(=O)[C@@H](NC(=O)[C@@H](NC(=O)[C@H](CO)NC(=O)[C@H](C)NC(=O)[C@H](Cc1ccccc1)NC(=O)[C@H](CC(N)=O)NC(=O)[C@H](CO)NC(=O)CN)[C@@H](C)O)[C@@H](C)O)C(=O)N[C@@H](CCCCN)C(=O)N[C@@H](C)C(=O)O (H-GSNFASTTVKA-OH) | 228% | 120%
11 | CNCC(=O)N[C@@H](CO)C(=O)N[C@@H](CC(N)=O)C(=O)N[C@@H](Cc1ccccc1)C(=O)N[C@H](C(=O)N[C@@H](CO)C(=O)N[C@H](C(=O)N[C@H](C(=O)N[C@H](C(=O)N[C@@H](CCCCN)C(=O)N[C@@H](C)C(=O)O)C(C)C)[C@@H](C)O)[C@@H](C)O)[C@@H](C)O (H-[Sar]SNFTSTTVKA-OH) | 181% | 294%
12 | CC(C)[C@H](NC(=O)[C@@H](NC(=O)[C@@H](NC(=O)[C@H](CO)NC(=O)[C@@H](NC(=O)[C@H](Cc1ccccc1)NC(=O)[C@H](CC(N)=O)NC(=O)[C@H](CO)NC(=O)CN)[C@@H](C)O)[C@@H](C)O)[C@@H](C)O)C(=O)N[C@H](CCCCN)C(=O)N[C@@H](C)C(=O)O | 109% | 53%
13 | CC(C)[C@@H](NC(=O)[C@@H](NC(=O)[C@@H](NC(=O)[C@H](CO)NC(=O)[C@@H](NC(=O)[C@H](Cc1ccccc1)NC(=O)[C@H](CC(N)=O)NC(=O)[C@H](CO)NC(=O)CN)[C@@H](C)O)[C@@H](C)O)[C@@H](C)O)C(=O)N[C@@H](CCCCN)C(=O)N[C@@H](C)C(=O)O | 97% | 107%
14 | CC(C)[C@H](NC(=O)[C@@H](NC(=O)[C@@H](NC(=O)[C@H](CO)NC(=O)[C@@H](NC(=O)[C@H](Cc1ccccc1)NC(=O)[C@H](CC(N)=O)NC(=O)[C@H](C)NC(=O)CN)[C@@H](C)O)[C@@H](C)O)[C@@H](C)O)C(=O)N[C@@H](CCCCN)C(=O)N[C@@H](C)C(=O)O (H-GANFTSTTVKA-OH) | 177% | 146%
15 | CC(C)[C@H](NC(=O)[C@@H](NC(=O)[C@@H](NC(=O)[C@H](CO)NC(=O)[C@@H](NC(=O)[C@H](Cc1ccccc1)NC(=O)[C@H](CC(N)=O)NC(=O)[C@H](CO)NC(=O)CN)[C@@H](C)O)[C@@H](C)O)[C@@H](C)O)C(=O)N[C@@H](C)C(=O)N[C@@H](C)C(=O)O (H-GSNFTSTTVAA-OH) | 85% | 0%
16 | CC(C)[C@@H](C(=O)N[C@@H](CCCCN)C(=O)N[C@@H](C)C(=O)O)N(C)C(=O)[C@@H](NC(=O)[C@@H](NC(=O)[C@H](CO)NC(=O)[C@@H](NC(=O)[C@H](Cc1ccccc1)NC(=O)[C@H](CC(N)=O)NC(=O)[C@H](CO)NC(=O)CN)[C@@H](C)O)[C@@H](C)O)[C@@H](C)O (H-GSNFTSTT[NMeV]KA-OH) | 273% | 215%
17 | CC(C)[C@H](NC(=O)[C@@H](NC(=O)[C@@H](NC(=O)[C@H](CO)N(C)C(=O)[C@@H](NC(=O)[C@H](Cc1ccccc1)NC(=O)[C@H](CC(N)=O)NC(=O)[C@H](CO)NC(=O)CN)[C@@H](C)O)[C@@H](C)O)[C@@H](C)O)C(=O)N[C@@H](CCCCN)C(=O)N[C@@H](C)C(=O)O (H-GSNFT[NMeS]TTVKA-OH) | 312% | 279%
18 | CC(C)[C@H](NC(=O)[C@H]([C@@H](C)O)N(C)C(=O)[C@@H](NC(=O)[C@H](CO)NC(=O)[C@@H](NC(=O)[C@H](Cc1ccccc1)NC(=O)[C@H](CC(N)=O)NC(=O)[C@H](CO)NC(=O)CN)[C@@H](C)O)[C@@H](C)O)C(=O)N[C@@H](CCCCN)C(=O)N[C@@H](C)C(=O)O (H-GSNFTST[NMeT]VKA-OH) | 265% | 168%
19 | CC(C)[C@H](NC(=O)[C@@H](NC(=O)[C@@H](NC(=O)[C@H](CO)NC(=O)[C@@H](NC(=O)[C@@H](Cc1ccccc1)NC(=O)[C@H](CC(N)=O)NC(=O)[C@H](CO)NC(=O)CN)[C@@H](C)O)[C@@H](C)O)[C@@H](C)O)C(=O)N[C@@H](CCCCN)C(=O)N[C@@H](C)C(=O)O | 229% | 211%
20 | CC(C)[C@H](NC(=O)[C@H](NC(=O)[C@@H](NC(=O)[C@H](CO)NC(=O)[C@@H](NC(=O)[C@H](Cc1ccccc1)NC(=O)[C@H](CC(N)=O)NC(=O)[C@H](CO)NC(=O)CN)[C@@H](C)O)[C@@H](C)O)[C@@H](C)O)C(=O)N[C@@H](CCCCN)C(=O)N[C@@H](C)C(=O)O | 85% | 60%
